# From ChEMBL document CHEMBL1201862, “PubChem BioAssay data set” (2004)
#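 Growth conditions: 96-well plates. Treatment: test compound, 48 hours, 5 concentrations. Analysis: linear interpolation between bracketing concentrations; unreached endpoints set to highest concentration. GI50 marks 50% less growth.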 Activity calls are given as the source filed them. Rule as the data show it: active = GI50 up to about 1.1 µM and inactive = higher. Non-standard residues stand in square brackets, D forms with d. Residues, ends and D or L forms follow the SMILES beside them. Ava = NCCCCC(=O)O; Mpa = O=C(O)CCS
# Key:
# Test in all cases: NCI-60 cell line screen, 48 h
# DU-145 = system: DU-145
# HT-29 = system: HT-29
# MCF7 = system: MCF7
# T47D = system: T47D
# BT-549 = system: BT-549
# SF-268 = system: SF-268
# RXF 393 = system: RXF 393
# HOP-92 = system: HOP-92
# M14 = system: M14
# NCI/ADR-RES = system: NCI/ADR-RES
# CCRF-CEM = system: CCRF-CEM
# HCT-116 = system: HCT-116
# OVCAR-5 = system: OVCAR-5
# Hs-578T = system: Hs-578T
# NCI-H460 = system: NCI-H460
# HL-60 = system: HL-60
# SN12C = system: SN12C
# U-251 = system: U-251
# NCI-H23 = system: NCI-H23
# A498 = system: A498
Structure (SMILES),GI50 (DU-145),GI50 (HT-29),GI50 (MCF7),GI50 (T47D),GI50 (BT-549),GI50 (SF-268),GI50 (RXF 393),GI50 (HOP-92),GI50 (M14),GI50 (NCI/ADR-RES),GI50 (CCRF-CEM),GI50 (HCT-116),GI50 (OVCAR-5),GI50 (Hs-578T),GI50 (NCI-H460),GI50 (HL-60),GI50 (SN12C),GI50 (U-251),GI50 (NCI-H23),GI50 (A498)
CC(NC(=O)CCS)C(=O)NC(C)C(=O)NC(Cc1c[nH]c2ccccc12)C(=O)NC(Cc1c[nH]cn1)C(=O)NC(CO)C(=O)NC(Cc1c[nH]c2ccccc12)C(=O)NCCCCC(=O)NC(C)C(=O)NC(CCC(N)=O)C(=O)NC(CCCCN)C(=O)NC(C)C(=O)NC(CCCNC(=N)N)C(=O)NC(CCCCN)C(N)=O (stereo not given) ([Mpa]AAWHSW[Ava]AQKARK-NH2; configuration not given here),87.9 µM (inactive),> 100 µM (inactive),> 100 µM (inactive),23.9 µM (inactive),> 100 µM (inactive),29.2 µM (inactive),> 100 µM (inactive),> 100 µM (inactive),> 100 µM (inactive),> 100 µM (inactive),79.4 µM (inactive),> 100 µM (inactive),> 100 µM (inactive),> 100 µM (inactive),37.2 µM (inactive),24.7 µM (inactive),> 100 µM (inactive),43.2 µM (inactive),> 100 µM (inactive),> 100 µM (inactive)
COC(=O)c1cc2c(cc1C(=O)OC)[C@@]1(C)CCCC(C)(C)C1CC2 (stereo not given in full),14.1 µM (inactive),15.6 µM (inactive),15 µM (inactive),0.508 µM (active),28.6 µM (inactive),13.9 µM (inactive),10.1 µM (inactive),9.91 µM (inactive),22.9 µM (inactive),16.3 µM (inactive),16.7 µM (inactive),17.9 µM (inactive),18.3 µM (inactive),17.7 µM (inactive),20.3 µM (inactive),8.77 µM (inactive),19.3 µM (inactive),18.4 µM (inactive),30.5 µM (inactive),15.6 µM (inactive)
COC(=O)c1scc(N)c1-n1ccc(=O)[nH]c1=O,> 100 µM (inactive),> 100 µM (inactive),> 100 µM (inactive),> 100 µM (inactive),> 100 µM (inactive),> 100 µM (inactive),> 100 µM (inactive),> 100 µM (inactive),> 100 µM (inactive),> 100 µM (inactive),> 100 µM (inactive),> 100 µM (inactive),> 100 µM (inactive),> 100 µM (inactive),> 100 µM (inactive),> 100 µM (inactive),> 100 µM (inactive),> 100 µM (inactive),> 100 µM (inactive),> 100 µM (inactive)
C=CCSC1=N/C(=C\c2ccco2)C(=O)N1CC=C,90.4 µM (inactive),68.4 µM (inactive),16.6 µM (inactive),28.2 µM (inactive),46.1 µM (inactive),> 100 µM (inactive),22.5 µM (inactive),55.2 µM (inactive),> 100 µM (inactive),85.7 µM (inactive),42.6 µM (inactive),52.1 µM (inactive),> 100 µM (inactive),> 100 µM (inactive),> 100 µM (inactive),26.8 µM (inactive),> 100 µM (inactive),> 100 µM (inactive),66.5 µM (inactive),27.2 µM (inactive)
O=C(CC(=O)c1ccncc1)c1ccccc1,> 100 µM (inactive),> 77.8 µM (inactive),> 77.6 µM (inactive),> 100 µM (inactive),> 100 µM (inactive),63.5 µM (inactive),81.3 µM (inactive),> 87.1 µM (inactive),78 µM (inactive),24.3 µM (inactive),11.9 µM (inactive),75.2 µM (inactive),> 100 µM (inactive),> 100 µM (inactive),32.9 µM (inactive),1.01 µM (active),42.2 µM (inactive),49.7 µM (inactive),80.7 µM (inactive),> 100 µM (inactive)
COc1ccc(N2C(=O)/C(=C/c3ccc(N(CCC#N)CCC#N)cc3C)N=C2c2cc([N+](=O)[O-])ccc2Cl)cc1,6.34 µM (inactive),4.07 µM (inactive),4.81 µM (inactive),> 89.9 µM (inactive),53.2 µM (inactive),11 µM (inactive),4.61 µM (inactive),> 31.7 µM (inactive),4.67 µM (inactive),> 10 µM (inactive),3.77 µM (inactive),3.94 µM (inactive),25.4 µM (inactive),1.54 µM (inactive),4.5 µM (inactive),3.62 µM (inactive),6.31 µM (inactive),4.42 µM (inactive),7.59 µM (inactive),5.41 µM (inactive)
CCOC(=O)c1ccc(NC2Oc3cc4c(cc3C(c3cc(OC)c(OC)c(OC)c3)C2C)OCO4)cc1 (stereo not given),0.48 µM (active),0.31 µM (active),0.402 µM (active),0.486 µM (active),0.474 µM (active),0.675 µM (active),0.552 µM (active),0.938 µM (active),0.522 µM (active),0.369 µM (active),0.371 µM (active),0.465 µM (active),3.94 µM (inactive),1.24 µM (inactive),0.445 µM (active),0.209 µM (active),1.35 µM (inactive),0.433 µM (active),0.695 µM (active),0.566 µM (active)
